The source of these data is patent US7718394B2, “Methods for diagnosis and monitoring of neurological disease by detection of an encephalotoxin” (priority 2003, dated 2010).

This assay is described as follows: Inactivation of encephalotoxin by nitrous acid, heparin lyases and sulfatases (loss of neurotoxic activity). The format is biochemical. The method, then:
Structural characterization and inactivation of encephalotoxin (isolated by organic extractions, gel filtration, and sequential C18 HPLC from Aβ-stimulated microglial cell line BV2) was performed by various nitrous acid cleavage protocols. […] Traditionally, heparin lyase I acts primarily on heparin-containing GlcNS(1→4)IdoA2S sequences and heparin lyase III on HS primarily at a GlcNAc(1→4)IdoA or GlcNAc(1→4)GlcA sequence.
1 ml of CSF was fractionated by adsorption chromatography, dried under vacuum, and reconstituted in artificial CSF comprising electrolytes, such as NaCl, and glucose. Increasing amounts of fractionated toxin (range 0.1 to 500 ul equivalents of original sample volume) were added to triplicate cultures. Results were plotted as volume vs. % neuron kill (with kill calculated as % loss of immuno-stained hippocampal neurons against untreated control cultures). […] In order to compare different populations, a CSF Neurotoxicity Index was developed to assign scores that reflect level of neurotoxin. This index was calculated as an ED50 (the equivalent CSF volume that yields 50% of the maximal level of neuron killing).

“Also recorded” adds a separate entry of the source.

Consider `O=NO` [nitrous acid], for which the “inactivation of encephalotoxin released by BV2 microglia” value (encephalotoxin from Aβ-stimulated microglial cell line BV2, FIG. 1A) is “inactivated; also recorded: eliminated”. Moreover, the “inactivation of encephalotoxin recovered from lumbar CSF of subject with AD” value (lumbar CSF, AD, FIG. 1C) was “inactivated”. For the same molecule, the “inactivation of encephalotoxin found in ventricular CSF of AD brain” value (ventricular CSF of AD brain, FIG. 1B) is reported as “inactivated”.
